Source: patent US7355033B2, “Screening for West Nile Virus antiviral therapy” (Health Research, Inc., priority 2002, dated 2008)
pEC50: −log10 of the molar value.

What was measured:
[1] = tested on: lineage I WNV replicon (Rluc/NeoRep); assay: Rluc activity in BHK-21 reporting cell line containing WNV Rluc/NeoRep replicon; type: cell-based; conditions: West Nile virus, 24 h compound treatment, 12-well plates, estimated from Rluc curves, read-out: EC50 (compound concentration required to inhibit 50% of the Rluc activity)
Experimental: (§1) To test the stability of the replicon-containing cell lines, cells at various time points post-selection (p.s.) were examined for viral and Rluc protein expression, and for replicon RNA copy numbers. […] (lower two panels in FIG. 18B). […] (ii) Stable and high levels of Rluc activity were detected from cells collected on days 20, 50, and 80 p.s. (FIG. 18C). For Rluc assay, 10^6 cells were lysed in 500 microliters of lysis buffer; 20 microliters of lysate was measured for Rluc activity according to the manufacturer (Promega) using a Lumat luminometer (EG & G, Berthold, Australia). Approximately 8×10^6 light units were consistently detected from 4×10^4 cells, about 200 light units per cell. (iii) A consistent level of replicon RNA was maintained in cells at 20, 50, and 80 days p.s. (FIG. 18D). Real-time RT-PCR, targeting the viral NS1 region, was used to quantify replicon RNA as previously reported (Shi, P. Y., et al. 2002. Virology 296:219-233; Shi, P. Y., et al. 2002. J. Virol. 76:5847-56; Lo, M. K., et al. 2003. J. Virology 77, 12901-12906). Total RNA extracted from 10^6 cells was eluted in 50 microliters of RNase-free water using RNeasy kits (Qiagen); 5 microliters of RNA was quantified by real-time RT-PCR, using in vitro trancribed RNA as standards. About 10^9 replicon molecules in 10^5 cells was estimated, or about 10^4 replicon RNAs per cell.
To examine whether the reporting cell line can be used as an antiviral assay, three known WNV inhibitors were tested in the cells: 6-azauridine, an inhibitor of orotidine monophosphate decarboxylase, and mycophenolic acid and ribavirin, inhibitors of inosine monophosphate dehydrogenase (De Clercq, E. 1993. Advance Virus Res. 42:1-55; Jordan, I., et al. 2000. J. Infect. Dis. 182:1214-7; Morrey, J., et al. 2002. Antiviral Res. 55:107-116). Ribavirin has also been reported to function as a mutagen, causing lethal levels of mutagenesis within the virus population (Crotty, S., et al. 2000. Nature Med. 6:1375-9). All three compounds were purchased from Sigma (St. Louis, Mo.). Initially, the assay was performed in 12-well plates. […]

[2] = tested on: lineage I WNV replicon (Rluc/NeoRep) RNA; assay: Replicon RNA copy number by real-time RT-PCR in Rluc/NeoRep reporting cell line; type: cell-based; conditions: West Nile virus, 24 h, read-out: EC50 derived from the replicon RNA copy numbers
Experimental: as §1
To verify that the reduction in Rluc activity reflected the compound inhibition of viral RNA replication, RT-PCR was performed. After 24 h of compound treatment, cells from the 12-well plates were assayed for RNA amounts as described above, except that 12 μl from the 50 μl extracted RNA was used in the real-time RT-PCR assay. […] The relative potencies of the three tested compounds are also similar to those observed with the Rluc results, in the decreasing order of mycophenolic acid, 6-azauridine, and ribavirin (compare FIGS. 19A to 19B). […]

WNV = conditions: Morrey et al. 2002; read-out: EC50 derived from the standard viral infection assay; cited from earlier work

| Compound | pEC50 [1] | pEC50 [2] | pEC50 (WNV) |
| --- | --- | --- | --- |
| O=c1cnn([C@@H]2O[C@H](CO)[C@@H](O)[C@H]2O)c(=O)[nH]1 [6-azauridine] | 4.96 | < 3.52 | 5.21 |
| COc1c(C)c2c(c(O)c1C/C=C(\C)CCC(=O)O)C(=O)OC2 [mycophenolic acid] | 5.27 | ~4.00 | 5.08 |
| NC(=O)c1ncn([C@@H]2O[C@H](CO)[C@@H](O)[C@H]2O)n1 [ribavirin] | 3.85 | < 3.52 | 3.75 |
